{"source": "patent US20080299638A1", "about": "(priority 2004, published 2008)", "key": {"[1]": {"system": "2.2.15 cells", "experiment": "Arginase toxicity to cells (CPE method, Reed-Muench)", "type": "cell-based, human", "details": "8 days drug addition", "method": "Divide experiment into control group and test groups with different drug concentration. Digest cells, dilute to 200,000 cells/ml, transfer to culture plate, 100 μl per well for 96-well plate, incubate for 24 hours under 5% CO2 at 37° C., ready for experiment when cells grown into monolayer. […] Observe cytopathological changes, 8 days or 4 days under microscope, totally destroyed is 4; 75% destroyed is 3; 50% destroyed is 2, 25% destroyed is 1; no changes is 0. Calculate TC50 and TC0 according to Reed-Muench Method:\nA=log>50% drug concentration; B=log<50% drug concentration; C=log times of dilution\nStarting from 40 IU/ml and subsequently 20, 10, 5, 2.5 IU/ml, change drug solution every 4 days until 8 days, observe cytopathological changes under microscope, and check for CPE with microscope."}, "[2]": {"system": "HBeAg", "experiment": "Suppression of HBeAg secretion in 2.2.15 cells (radioimmunoassay, cpm)", "type": "cell-based, hepatitis B virus", "method": "(§1) Grow 200000 cells/ml 2.2.15 cell on 24-well plate, 1 ml per well, incubate for 24 hours under 5% CO2 at 37° C. […] 4 wells per concentration, incubate under 5% CO2 at 37° C., change drug solution every 4 days with the same concentration, retrieve culture medium at day 8, preserve at −20° C. Repeat experiment for 2 batches, test for HBsAg and HBeAg separately. Check cpm value for each wells using γ-counter.\n(§2) Calculating drug effectiveness: calculate the mean and standard deviation of cpm from the cell control group and groups with different drug concentration, P/N value and percent suppression, IC50 and SI. • (1)\n(§3) [formula] • (2) Calculate IC50 for drug suppression of antigen:\n(§4) [formula] • (4) Calculate the cpm differences between HBsAg and HBeAg in different dilutions and control groups by t-test."}, "[3]": {"system": "HBV-DNA in supernatant of 2.2.15 cell culture", "experiment": "HBV-DNA dot blot in supernatant of 2.2.15 cell culture", "type": "cell-based, hepatitis B virus", "details": "day 8; for HBV-DNA in cell culture supernatant, CPM: control 3808.34", "method": "Extraction of HBV-DNA from 2.2.15 cells supernatant: Grow 200000 cells/ml 2.2.15 cell on 24-well plate, 1 ml per well, add drugs after 24 hours incubation, change drug solution every 4 days with the same concentration, collect supernatant from cell culture after 8 days of incubation counted from the day drugs added into the culture, precipitate with polyethylene glycol, digest with proteinase K, extract with phenol:chloroform:isopentanol, nucleic acid precipitation by absolute ethanol and so on procedures, vacuum dry, re-dissolve in TE buffer as sample.\nDot blot: place dots: take 20 μl sample (contains 25 μg DNA), denature, neutralize, serial dilute 20×SSC buffer to 1:8 dilution on nitrocellulose membrane, oven dry, pre-hybridize, hybridize, wash membrane, radioactive self exposure and so on procedures. Develop X ray film with conventional method. Scan developed film with scanner, measure density with gel-pro software, calculate suppression rate and IC50."}, "[4]": {"system": "HBsAg", "experiment": "Suppression of HBsAg secretion in 2.2.15 cells (radioimmunoassay, cpm)", "type": "cell-based, hepatitis B virus", "method": "as §1, §2, §3, §4"}, "[5]": {"details": "Lamivudine 50 μg/ml, batch 1, day 8"}, "[6]": {"details": "Lamivudine 50 μg/ml, batch 2, day 8"}, "[7]": {"details": "Lamivudine 50 μg/ml, two batches average, day 8"}, "[8]": {"details": "Lamivudine 50 μg/ml, two batches average, day 8, listed as lamivudine"}, "[9]": {"details": "Lamivudine 100 μg/ml, batch 1, day 8"}, "[10]": {"details": "Lamivudine 100 μg/ml, batch 2, day 8"}, "[11]": {"details": "Lamivudine 100 μg/ml, two batches average, day 8"}, "[12]": {"details": "Lamivudine 100 μg/ml, two batches average, day 8, listed as lamivudine"}, "[13]": {"details": "Lamivudine 200 μg/ml, batch 1, day 8"}, "[14]": {"details": "Lamivudine 200 μg/ml, batch 2, day 8"}, "[15]": {"details": "Lamivudine 200 μg/ml, two batches average, day 8"}, "[16]": {"details": "Lamivudine 200 μg/ml, two batches average, day 8, listed as lamivudine"}, "[17]": {"details": "Lamivudine 400 μg/ml, batch 1, day 8"}, "[18]": {"details": "Lamivudine 400 μg/ml, batch 2, day 8"}, "[19]": {"details": "Lamivudine 400 μg/ml, two batches average, day 8"}, "[20]": {"details": "Lamivudine 400 μg/ml, two batches average, day 8, listed as lamivudine"}, "[21]": {"details": "Lamivudine 800 μg/ml, batch 1, day 8"}, "[22]": {"details": "Lamivudine 800 μg/ml, batch 2, day 8"}, "[23]": {"details": "Lamivudine 800 μg/ml, two batches average, day 8"}, "[24]": {"details": "Lamivudine 800 μg/ml, two batches average, day 8, listed as lamivudine"}}, "note": "Several values for one entry are separate records, joined by “and”; a condition that tells them apart may be missing. Identical values can stand only once.", "data": [{"molecule": "Nc1ccn([C@@H]2CS[C@H](CO)O2)c(=O)n1", "note": "[Lamivudine, lamivudine, reference compound]", "values": [{"measurement": "TC0", "setting": "[1]", "value": "800 ± 0", "unit": "µg/mL"}, {"measurement": "TC50", "setting": "[1]", "value": 1198.97, "unit": "µg/mL"}, {"measurement": "TC0", "setting": "[1]; listed as lamivudine", "value": "800 ± 0", "unit": "µg/mL"}, {"measurement": "TC50", "setting": "[1]; listed as lamivudine", "value": "1198.97 ± 97.50 µg/mL and 1198.97 µg/mL"}, {"measurement": "IC50", "setting": "[2]; Hepatitis B virus, 192 h, read-out: HBeAg IC50", "value": "> 800", "unit": "µg/mL"}, {"measurement": "HBeAg (CPM) % suppression", "setting": "[2]; [5]", "value": 13.20, "unit": "%"}, {"measurement": "HBeAg (CPM) % suppression", "setting": "[2]; [6]", "value": 14.99, "unit": "%"}, {"measurement": "HBeAg (CPM) % suppression", "setting": "[2]; [7]", "value": "14.10 ± 1.27", "unit": "%"}, {"measurement": "HBeAg (CPM) % suppression", "setting": "[2]; [8]", "value": "14.10±1.27", "unit": "%"}, {"measurement": "HBeAg (CPM) % suppression", "setting": "[2]; [9]", "value": 17.48, "unit": "%"}, {"measurement": "HBeAg (CPM) % suppression", "setting": "[2]; [10]", "value": 14.19, "unit": "%"}, {"measurement": "HBeAg (CPM) % suppression", "setting": "[2]; [11]", "value": "15.84 ± 2.33", "unit": "%"}, {"measurement": "HBeAg (CPM) % suppression", "setting": "[2]; [12]", "value": "15.84±2.33", "unit": "%"}, {"measurement": "HBeAg (CPM) % suppression", "setting": "[2]; [13]", "value": 16.35, "unit": "%"}, {"measurement": "HBeAg (CPM) % suppression", "setting": "[2]; [14]", "value": 19.31, "unit": "%"}, {"measurement": "HBeAg (CPM) % suppression", "setting": "[2]; [15]", "value": "17.83 ± 2.09", "unit": "%"}, {"measurement": "HBeAg (CPM) % suppression", "setting": "[2]; [16]", "value": "17.83±2.09", "unit": "%"}, {"measurement": "HBeAg (CPM) % suppression", "setting": "[2]; [17]", "value": 12.67, "unit": "%"}, {"measurement": "HBeAg (CPM) % suppression", "setting": "[2]; [18]", "value": 13.32, "unit": "%"}, {"measurement": "HBeAg (CPM) % suppression", "setting": "[2]; [19]", "value": "12.99 ± 0.46", "unit": "%"}, {"measurement": "HBeAg (CPM) % suppression", "setting": "[2]; [20]", "value": "12.99±0.46", "unit": "%"}, {"measurement": "HBeAg (CPM) % suppression", "setting": "[2]; [21]", "value": 6.10, "unit": "%"}, {"measurement": "HBeAg (CPM) % suppression", "setting": "[2]; [22]", "value": 10.37, "unit": "%"}, {"measurement": "HBeAg (CPM) % suppression", "setting": "[2]; [23]", "value": "8.23 ± 3.02", "unit": "%"}, {"measurement": "HBeAg (CPM) % suppression", "setting": "[2]; [24]", "value": "8.23±3.02", "unit": "%"}, {"measurement": "HBeAg IC50", "setting": "[2]; batch 1, day 8", "value": ">800", "unit": "µg/mL"}, {"measurement": "HBeAg IC50", "setting": "[2]; two batches average, day 8", "value": ">800 ± 0 TC0 800 μg/ml and >800 μg/ml"}, {"measurement": "IC50", "setting": "[3]; Hepatitis B virus, 192 h, first batch experiment", "value": 114, "unit": "µg/mL"}, {"measurement": "% suppression of HBV-DNA in cell culture supernatant", "setting": "[3]; Lamivudine 50 μg/ml", "value": 25.6576, "unit": "%"}, {"measurement": "HBV-DNA in cell culture supernatant, CPM", "setting": "[3]; Lamivudine 50 μg/ml", "value": 2831.21, "unit": "CPM"}, {"measurement": "% suppression of HBV-DNA in cell culture supernatant", "setting": "[3]; Lamivudine 100 μg/ml", "value": 61.5237, "unit": "%"}, {"measurement": "HBV-DNA in cell culture supernatant, CPM", "setting": "[3]; Lamivudine 100 μg/ml", "value": 1465.31, "unit": "CPM"}, {"measurement": "% suppression of HBV-DNA in cell culture supernatant", "setting": "[3]; Lamivudine 200 μg/ml", "value": 71.6404, "unit": "%"}, {"measurement": "HBV-DNA in cell culture supernatant, CPM", "setting": "[3]; Lamivudine 200 μg/ml", "value": 1080.03, "unit": "CPM"}, {"measurement": "% suppression of HBV-DNA in cell culture supernatant", "setting": "[3]; Lamivudine 400 μg/ml", "value": 79.1083, "unit": "%"}, {"measurement": "HBV-DNA in cell culture supernatant, CPM", "setting": "[3]; Lamivudine 400 μg/ml", "value": 795.628, "unit": "CPM"}, {"measurement": "% suppression of HBV-DNA in cell culture supernatant", "setting": "[3]; Lamivudine 800 μg/ml", "value": 82.5905, "unit": "%"}, {"measurement": "HBV-DNA in cell culture supernatant, CPM", "setting": "[3]; Lamivudine 800 μg/ml", "value": 663.013, "unit": "CPM"}, {"measurement": "IC50", "setting": "[4]; Hepatitis B virus, 192 h, read-out: HBsAg IC50", "value": "> 800", "unit": "µg/mL"}, {"measurement": "HBsAg (CPM) % suppression", "setting": "[4]; [5]", "value": 6.24, "unit": "%"}, {"measurement": "HBsAg (CPM) % suppression", "setting": "[4]; [6]", "value": 0.65, "unit": "%"}, {"measurement": "HBsAg (CPM) % suppression", "setting": "[4]; [7]", "value": "3.45 ± 3.95", "unit": "%"}, {"measurement": "HBsAg (CPM) % suppression", "setting": "[4]; [8]", "value": "3.45±3.95", "unit": "%"}, {"measurement": "HBsAg (CPM) % suppression", "setting": "[4]; [9]", "value": 12.05, "unit": "%"}, {"measurement": "HBsAg (CPM) % suppression", "setting": "[4]; [10]", "value": 5.15, "unit": "%"}, {"measurement": "HBsAg (CPM) % suppression", "setting": "[4]; [11]", "value": "8.6 ± 4.88", "unit": "%"}, {"measurement": "HBsAg (CPM) % suppression", "setting": "[4]; [12]", "value": "8.60±4.88", "unit": "%"}, {"measurement": "HBsAg (CPM) % suppression", "setting": "[4]; [13]", "value": 2.35, "unit": "%"}, {"measurement": "HBsAg (CPM) % suppression", "setting": "[4]; [14]", "value": 8.99, "unit": "%"}, {"measurement": "HBsAg (CPM) % suppression", "setting": "[4]; [15]", "value": "5.67 ± 4.7", "unit": "%"}, {"measurement": "HBsAg (CPM) % suppression", "setting": "[4]; [16]", "value": "5.67±4.70", "unit": "%"}, {"measurement": "HBsAg (CPM) % suppression", "setting": "[4]; [17]", "value": 8.10, "unit": "%"}, {"measurement": "HBsAg (CPM) % suppression", "setting": "[4]; [18]", "value": 0, "unit": "%"}, {"measurement": "HBsAg (CPM) % suppression", "setting": "[4]; [19]", "value": "4.05 ± 5.73", "unit": "%"}, {"measurement": "HBsAg (CPM) % suppression", "setting": "[4]; [20]", "value": "4.05±5.73", "unit": "%"}, {"measurement": "HBsAg (CPM) % suppression", "setting": "[4]; [21]", "value": 0, "unit": "%"}, {"measurement": "HBsAg (CPM) % suppression", "setting": "[4]; [22]", "value": 9.299, "unit": "%"}, {"measurement": "HBsAg (CPM) % suppression", "setting": "[4]; [23]", "value": "4.65 ± 6.58", "unit": "%"}, {"measurement": "HBsAg (CPM) % suppression", "setting": "[4]; [24]", "value": "4.65±6.58", "unit": "%"}, {"measurement": "HBsAg IC50", "setting": "[4]; batch 1, day 8", "value": ">800", "unit": "µg/mL"}, {"measurement": "HBsAg IC50", "setting": "[4]; two batches average, day 8", "value": ">800 ± 0 TC0 μg/ml and >800 μg/ml"}]}]}
